Laboratory results from patent US9212196B2, “Hypophosphorous acid derivatives having antihyperalgic activity and biological applications thereof” (UNIVERSITE PARIS DESCARTES, priority 2011, dated 2015).

Columns and labels:
mGlu7 [1] = assay: Agonist activity on mGlu7 in transfected HEK293 cells, intracellular calcium release (Fluo4-AM); format: cell-based; conditions: ratio of mGlu7 EC50 to mGlu4 EC50
Excerpt: (§1) The EC50's are compared to those of L-AP4 (L-2-amino-4-phosphonobutyric acid) used as a reference.
(§2) Metabotropic glutamate receptors were transiently transfected in HEK293 cells by electroporation as described elsewhere (Brabet I. et al., 1998) and plated in 96-well microplates. The high affinity glutamate transporter EAAC1 was co-transfected with the receptor in order to avoid any influence of glutamate released by the cells in the assay medium. In the experiments carried out by the inventors, Group-III mGluRs were co-transfected with a chimeric G-protein which couples the activation of the receptor to the phospholipase-C (PLC) pathway. Thus receptor activation induces production of inositol phosphate (IP) which in turn induces intracellular Ca^2+ release. Receptor activity was then determined by measurement of the IP production or Ca release as already described (Goudet C. et al., PNAS 2004). For intracellular calcium measurements, cells expressing mGluRs were loaded with Ca2+-sensitive fluorescent dye Fluo-4 AM (Invitrogen, Cergy-Pontoise, France) dissolved in Hanks' balanced salt solution (HBSS, Invitrogen, Cergy-Pontoise, France) containing 2.5 mM Probenicid (Sigma-Aldrich Chemie, Saint-Quentin Fallavier, France) for 1 h at 37° C., then washed and incubated with HBSS containing probenecid. A drug plate was prepared with the various concentrations of agonist to be tested and drug solution was added in each well after 20 s of recording. Fluorescence signals (excitation 485 nm, emission 525 nm) were measured by using the fluorescence microplate reader Flexstation III (Molecular Devices, Saint-Grégoire, France) at sampling intervals of 1.5 s for 60 s. All points are realized in triplicate.
(§3) The dose-response curves were fitted using the GraphPad Prism program and the following equation: y=[(ymax−ymin)/(1+(x/EC50)n)]+ymin where EC50 is the concentration of the compound necessary to obtain the half maximal effect and n is the Hill coefficient.

mGlu7 [2] = target: mGlu7 (Homo sapiens (Human), UniProt Q14831); assay: as above; format: cell-based; conditions: transfected cells, calcium release; read-out: mGlu7 EC50 μM (n)
Excerpt: as §1, §2, §3

[3] = system: carrageenan inflammatory pain model; assay: Paw pressure test in carrageenan inflammatory pain model in rats; format: in vivo, rat
Description: After the induction period of the neuropathy or inflammation, various amounts of derivative 2 dissolved in serum have been injected in rats, (from 0.5 to 15 μg/rat, i.t. from 1 to 30 mg/kg, i.p.) on time-course of vocalization threshold to paw pressure. The results obtained on healthy animals are given on FIG. 1. They are expressed by the time course curves of means+/−SEM of vocalization threshold in grams (n=6-8 rats per group) (A) or by the area under the curve (B). Morphine (10 μg/rat, i.t.) is used as a positive control. […] FIG. 2 illustrates the effect of intrathecal administration of derivative 2 on the vocalization threshold to paw pressure in the carrageenan inflammatory pain model (effect of derivative 2 (0.5, 1, 5, 10 μg/rat, i.t.) on time-course of vocalization threshold to paw pressure). Morphine (10 μg/rat, i.t.) is used as a positive control. […] Nociceptive thresholds, expressed in grams (g), were measured with a Ugo Basile analgesimeter (Apelex, tip diameter of the probe: 1 mm, weight: 30 g) by applying an increasing pressure to the right hind paw of rats until a squeak (vocalization threshold) was obtained (cut-off was 750 g except carrageenan treated animals for which the cut-off was 500 g). The treatments were done after the measurement of two consecutive stable vocalization threshold values and their effects were assessed 15, 30, 45, 60, 90, and 120 min after. […]

Chain of mGlu7 (Homo sapiens (Human), UniProt Q14831) (Q14831 35-915): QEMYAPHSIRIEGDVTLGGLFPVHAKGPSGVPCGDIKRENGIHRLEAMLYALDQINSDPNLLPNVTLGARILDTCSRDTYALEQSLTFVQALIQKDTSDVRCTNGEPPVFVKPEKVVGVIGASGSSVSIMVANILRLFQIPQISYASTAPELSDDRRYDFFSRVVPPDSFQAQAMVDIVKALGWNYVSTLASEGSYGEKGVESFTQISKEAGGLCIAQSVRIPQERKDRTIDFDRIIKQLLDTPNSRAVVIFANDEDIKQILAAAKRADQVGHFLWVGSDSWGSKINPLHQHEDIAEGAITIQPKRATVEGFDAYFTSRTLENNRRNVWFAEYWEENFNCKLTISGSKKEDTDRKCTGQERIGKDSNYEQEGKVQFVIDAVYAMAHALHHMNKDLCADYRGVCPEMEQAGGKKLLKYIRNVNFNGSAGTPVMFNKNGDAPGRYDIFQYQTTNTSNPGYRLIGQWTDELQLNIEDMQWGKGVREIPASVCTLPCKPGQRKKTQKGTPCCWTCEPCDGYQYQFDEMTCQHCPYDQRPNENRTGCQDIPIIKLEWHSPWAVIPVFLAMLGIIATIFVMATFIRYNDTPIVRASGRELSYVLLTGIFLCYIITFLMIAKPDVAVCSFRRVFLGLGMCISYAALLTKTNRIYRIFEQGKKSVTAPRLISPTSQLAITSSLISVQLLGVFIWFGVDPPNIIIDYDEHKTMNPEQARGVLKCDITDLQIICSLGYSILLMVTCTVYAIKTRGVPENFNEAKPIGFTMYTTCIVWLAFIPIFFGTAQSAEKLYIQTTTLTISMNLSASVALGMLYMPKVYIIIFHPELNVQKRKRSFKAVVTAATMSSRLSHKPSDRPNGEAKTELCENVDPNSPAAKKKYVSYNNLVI

Question: What does the source list for `N[C@@H](CCP(=O)(O)C(O)c1ccc(OCC(=O)O)cc1)C(=O)O` (stereo partly drawn) [Derivative 2, [((3S)-3-Amino-3-carboxy)propyl][(4-(carboxymethoxy)phenyl)hydroxymethyl]phosphinic Acid]?
Answer: mGlu7/4 EC50 ratio (mGlu7 [1]): 100; EC50 (mGlu7 [2]): 11.6 ± 1.9 µM; antihyperalgesic effect on vocalization threshold to paw pressure ([3]; carrageenan inflammatory pain, rats, 0.5-10 μg/rat i.t., FIG. 2): abolishes the excess of mechanical pain; antihyperalgesic effect compared to morphine ([3]; inflammatory pain, morphine 10 μg/rat i.t. as control): close to the one of morphine
